# Target: MAPK14 (human) (UniProt Q16539)
# Test: Inhibition of LPS-Induced TNF-alpha Production in THP-1 Cells
# Details: thp1
# MAPK14 (human), sequence (Q16539 whole entry, looked up): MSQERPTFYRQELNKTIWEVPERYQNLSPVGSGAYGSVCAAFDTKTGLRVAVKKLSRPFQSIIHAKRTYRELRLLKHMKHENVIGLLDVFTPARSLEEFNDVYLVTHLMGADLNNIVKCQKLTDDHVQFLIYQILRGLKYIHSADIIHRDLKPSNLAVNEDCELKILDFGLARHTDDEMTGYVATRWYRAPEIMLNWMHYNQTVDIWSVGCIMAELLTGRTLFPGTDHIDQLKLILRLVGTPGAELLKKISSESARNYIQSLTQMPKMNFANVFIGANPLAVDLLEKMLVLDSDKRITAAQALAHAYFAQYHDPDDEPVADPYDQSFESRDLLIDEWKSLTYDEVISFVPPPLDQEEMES
row,IC50 [nM],Compound
1,210,O=C(Nc1ccc(Cl)c(COc2cnccn2)c1)c1cc(F)cc(N2CCOCC2)c1
2,970,O=C(Nc1ccc(Cl)c(COc2ccc(NCCO)nc2)c1)c1cc(F)cc(N2CCOCC2)c1

# Target: MAPK14 (UniProt Q16539)
# Test: Enzyme Assay
# Details: not given
# MAPK14, sequence (Q16539 whole entry, looked up): as above
row,Compound,IC50 [µM]
1,O=C(Nc1ccc(Cl)c(COc2cnccn2)c1)c1cc(F)cc(N2CCOCC2)c1,< 2
2,CC(C)(C)c1ccc2[nH]cc(CC(=O)Nc3ccc(F)c(COc4cnccn4)c3)c2c1,< 200
3,Cc1nc2sccn2c1C(=O)Nc1ccc(F)c(COc2cnccn2)c1,< 2
4,O=C(Nc1ccc(F)c(COc2cnccn2)c1)c1ccc2ccccc2c1,< 20
5,Nc1ncccc1OCc1ccccc1CS(=O)(=O)c1ccccc1,< 1000
6,O=C(Nc1ccc(F)c(COc2cnccn2)c1)Oc1cccc(C(F)(F)F)c1,< 20
7,CSc1nnc(NC(=O)Nc2ccc(F)c(COc3cnccn3)c2)s1,< 200
8,C=CS(=O)(=O)Nc1cnc(OCc2c(Cl)cccc2Cl)cn1,< 200
9,O=C(Nc1ccc(Cl)c(COc2cccnc2)c1)c1cccc(F)c1,< 200
10,CC(C)(C)c1cc(NC(=O)Nc2ccc(F)c(COc3cnccn3)c2)n(-c2ccc(Cl)nn2)n1,< 2
11,CC(C)c1nnc(NC(=O)Nc2ccc(F)c(COc3cccnc3)c2)s1,< 20
12,NC(=O)Nc1ccc(Cl)c(COc2cccnc2)c1,< 20
13,Cc1nc(-c2cccc(C(=O)Nc3ccc(F)c(COc4cnccn4)c3)c2)cs1,< 2
14,O=C(Nc1ccc(F)c(COc2cnccn2)c1)c1ccc(=O)n(Cc2ccccc2)c1,< 20
15,Nc1ncccc1OCc1ccc(F)cc1F,< 1000
16,Clc1cnc(OCc2c(Cl)cccc2Cl)cn1,< 1000
17,CC(C)(CO)NC(=O)c1cnc(OCc2c(Cl)cccc2Cl)cn1,< 20

# Further lines, results first:
row,IC50 [µM],Compound
1,< 2,O=C(Nc1ccc(Cl)c(COc2ccc(NCCO)nc2)c1)c1cc(F)cc(N2CCOCC2)c1
2,< 1000,Nc1ncccc1OCn1nnc2ccccc21
3,< 1000,Nc1ncccc1OCc1cc2c(cc1Cl)OCO2
4,< 200,O=C(Nc1ccccc1)Oc1cccc(COc2cnccn2)c1
5,< 20,O=C(Nc1ccc(Cl)c(COc2cccnc2)c1)c1cccc(C(F)(F)F)c1
6,< 200,CC(C)(C)c1cc(NC(=O)Oc2cccc(COc3cnccn3)c2)n(-c2ccccc2)n1
7,< 2,O=C(Nc1ccc(F)c(COc2cnccn2)c1)c1cccc(S(=O)(=O)N2CCOCC2)c1
8,< 20,CN1CCN(CC(=O)Nc2cnc(OCc3c(Cl)cccc3Cl)cn2)CC1
9,< 2,O=C(Nc1ccc(Cl)c(COc2ccc(NCc3ccccc3)nc2)c1)c1cc(F)cc(N2CCOCC2)c1
10,< 1000,Nc1ccc(Cl)c(COc2cccnc2)c1
11,< 2,O=C(Nc1ccc(Cl)c(COc2cnccn2)c1)c1ccnc(N2CCOCC2)c1
12,< 200,O=C1c2ccccc2C(O)N1c1ccc(Cl)c(COc2cccnc2)c1 (centres undefined)
13,< 2,O=C(Nc1ccccc1)C(=O)Nc1ccc(Cl)c(COc2cccnc2)c1
14,< 200,O=C(Nc1ccc(F)c(COc2cnccn2)c1)c1ccc(-c2ccccc2)cc1
15,< 200,Clc1cccc(Cl)c1COc1cnc(NC2CCOCC2)cn1
16,< 1000,c1cncc(OCc2cccc3ccccc23)c1
17,< 20,CC(C)(Cc1ccncc1)NC(=O)c1cnc(OCc2c(Cl)cccc2Cl)cn1
18,< 200,O=C(Nc1ccc(F)c(COc2cccnc2)c1)c1ccccc1
19,< 1000,c1cc(COc2cccnc2)cc(COc2cccnc2)c1
20,< 200,O=C(Nc1ccc(F)c(COc2cnccn2)c1)Nc1ncc(-c2ccc(Cl)cc2)s1

# Reference: the Kinase Knowledgebase extract (Sharma et al. 2016)
